# In paper PMC5458555, “Conformational dynamics of dynamin-like MxA revealed by single-molecule FRET” (Nature Communications, 2017):
# Changes are numbered by the printed parent chain.
# Legend:
# MxA^MO2 [1] = molecular target: T1, MxA^MO2 (Homo sapiens, UniProt P20591, A149C/C322K/C336Q/C42S/C52S/M527D/S634C); experiment: isothermal titration calorimetry; format: binding; conditions: read-out: equilibrium dissociation constant
# T1 construct: gene MX1; monomeric full-length-type MxA (M527D) with solvent-exposed cysteines replaced; N-terminal His6-PreScission tag cut, E. coli Rosetta (DE3); SEC peak ~70 kDa
# T1 sequence (P20591 1-662 C42S/C52S/A149C/C322K/C336Q/M527D/S634C): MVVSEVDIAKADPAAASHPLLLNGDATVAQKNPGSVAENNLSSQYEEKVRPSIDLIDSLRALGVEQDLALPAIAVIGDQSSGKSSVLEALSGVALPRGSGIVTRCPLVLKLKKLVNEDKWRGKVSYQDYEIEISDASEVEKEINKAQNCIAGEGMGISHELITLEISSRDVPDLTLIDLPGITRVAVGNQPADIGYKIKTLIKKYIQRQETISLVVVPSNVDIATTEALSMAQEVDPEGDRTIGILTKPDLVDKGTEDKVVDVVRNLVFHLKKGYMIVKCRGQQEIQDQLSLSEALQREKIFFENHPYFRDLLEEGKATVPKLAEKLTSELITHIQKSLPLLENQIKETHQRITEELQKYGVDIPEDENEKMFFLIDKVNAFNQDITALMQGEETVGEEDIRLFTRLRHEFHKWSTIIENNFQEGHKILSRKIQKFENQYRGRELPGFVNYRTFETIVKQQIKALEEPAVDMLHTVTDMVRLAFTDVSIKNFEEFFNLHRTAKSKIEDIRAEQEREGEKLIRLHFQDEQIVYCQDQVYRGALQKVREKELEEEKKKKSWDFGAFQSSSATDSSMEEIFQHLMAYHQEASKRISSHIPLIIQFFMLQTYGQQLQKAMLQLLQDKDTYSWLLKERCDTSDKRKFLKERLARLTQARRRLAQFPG
# Experimental: (§1) isothermal titration calorimetry on MxA^MO2 | The equilibrium dissociation constants for MxA^MO2-AS and MxA^MO2-RR to GDP and GMPPCP were determined
# MxA^MO2 [2] = molecular target: T2, MxA^MO2 (Homo sapiens, UniProt P20591, C322K/C336Q/C42S/C52S/M527D/R352C/R500C); experiment: isothermal titration calorimetry; format: binding; conditions: read-out: equilibrium dissociation constant
# T2 construct: gene MX1; monomeric full-length-type MxA (M527D) with solvent-exposed cysteines replaced; N-terminal His6-PreScission tag cut, E. coli Rosetta (DE3); SEC peak ~70 kDa
# T2 sequence (P20591 1-662 C42S/C52S/C322K/C336Q/R352C/R500C/M527D): T1 sequence (P20591 1-662 C42S/C52S/A149C/C322K/C336Q/M527D/S634C) with C149A, R352C, R500C, C634S
# Experimental: as §1
SMILES,Kd (MxA^MO2 [1]) [µM],Kd (MxA^MO2 [2]) [µM]
"Nc1nc(O)c2ncn([C@@H]3O[C@H](COP(=O)(O)OP(=O)(O)C[P+]([O-])(O)O)[C@@H](O)[C@H]3O)c2n1 [GMPPCP, guanosine-5′-[(β,γ)-methyleno]triphosphate]",30 ± 0.003,14.7 ± 0.13
Nc1nc2c(ncn2[C@@H]2O[C@H](COP(=O)(O)OP(=O)(O)O)[C@@H](O)[C@H]2O)c(=O)[nH]1 [GDP],42.6 ± 0.14,26.3 ± 0.03
